Patent publication US20190290474A1, “DRUG RELEASE DEVICE AND USE” (JUROX PTY LTD, priority 2016, published 2019)

How the values were obtained:
[1] = aqueous pH 7 buffer; cited from earlier work
[2] = Example 13: progesterone dissolution from cut devices in 250 mL acetone, HPLC/UV; type: physicochemical; details: individual device
Experimental: The combined mass of each reagent bottle and solid contents was recorded (Mi) and each bottle was then charged with 250 mL of acetone. Reagent bottles were heated to 35° C. in a temperature controlled water bath and stirred using a submersible multipoint stirrer plate.
Reagent bottles were removed from the water bath at times 2, 4.5 and 47.5 hours after the commencement of stirring. All residual water from the temperature controlled water bath was removed from the outside of the container. The total mass of the dissolution vessel, drug product and drug product solution was then recorded (Mf) and the reagent bottles were left at ambient temperature. The initial mass (of components prior to solvent addition) was subtracted from the final mass to give the solvent mass at each time point.
The temperature of each solution of device extracts was recorded at 2.5, 5 and 48 hours after stirring commenced and a 2 mL aliquot of solution was sampled immediately following the temperature reading. The aliquot of extracts were diluted in 100 mL of 50:50 acetonitrile/water and a sample of the diluted solution was filtered into HPLC vials
The mass of solvent was converted to its corresponding volume using the literature density of acetone and equation below.
A progesterone dissolution profile and final content for each implant was be obtained using a HPLC/UV method for progesterone quantification in IVD and CIDR

Dissolution of progesterone, percentage of the dose concentration (1.38 g) ([2]; 2.5 Hours): 100.8%
Dissolution of progesterone, percentage of the dose concentration (1.38 g) ([2]; 5 Hours): 104.1%
Dissolution of progesterone, percentage of the dose concentration (1.38 g) ([2]; 48 Hours): 103.2%
SMILES: CC(=O)[C@H]1CC[C@H]2[C@@H]3CCC4=CC(=O)CC[C@]4(C)[C@H]3CC[C@]12C [Progesterone]
solubility of progesterone [1]: < 100 µg/mL
